# Results from PubChem BioAssay (NCI).
#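 GI50 marks 50% less growth. TGI: total growth inhibition.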
# Legend:
# Assay in all cases: DTP human tumour cell line panel, 384-well format
# [1] = system: A549 NSCLC
# [2] = system: RXF 393 renal
# [3] = system: OVCAR-8 ovarian
# [4] = system: SF-295 CNS
# [5] = system: M14 melanoma
# [6] = system: OVCAR-4 ovarian
# [7] = system: NCI/ADR-RES ovarian
# [8] = system: COLO 205 colon
# [9] = system: SF-268 CNS
# [10] = system: U251 glioblastoma
# [11] = system: OVCAR-3 ovarian
# [12] = system: UO-31 renal
# [13] = system: EKVX NSCLC
# [14] = system: NCI-H522 lung
# [15] = system: IGROV1 ovarian
# [16] = system: NCI-H226 lung
# [17] = system: SK-MEL-2 melanoma
# [18] = system: UACC-62 melanoma
# [19] = system: HOP-92 NSCLC
# [20] = system: MDA-MB-435 melanoma
# [21] = system: PC-3 prostate
# [22] = system: LOX IMVI melanoma
# [23] = system: KM12 colon
# [24] = system: NCI-H460 NSCLC
# [25] = system: SNB-19 CNS
# [26] = system: MCF7 breast
# [27] = system: MOLT-4 leukemia
# [28] = system: DU-145 prostate
# [29] = system: MDA-MB-468 breast
# [30] = system: ACHN renal
# [31] = system: 786-0 renal
# [32] = system: SK-OV-3 ovarian
# [33] = system: SK-MEL-5 melanoma
# [34] = system: UACC-257 melanoma
# [35] = system: A498 renal
# [36] = system: K-562 leukemia
# [37] = system: T-47D breast
# [38] = system: HCT-116 colon
# [39] = system: HT29 colon
# [40] = system: SN12C renal
# [41] = system: TK-10 renal
# [42] = system: HL-60(TB) leukemia
# [43] = system: NCI-H322M lung
# [44] = system: SR leukemia
# [45] = system: RPMI-8226 leukemia
# [46] = system: HS 578T breast
# [47] = system: HOP-62 NSCLC
# [48] = system: CAKI-1 renal
# [49] = system: SW-620 colon
# [50] = system: BT-549 breast
# [51] = system: HCT-15 colon
# [52] = system: NCI-H23 lung
# [53] = system: CCRF-CEM leukemia
# [54] = system: SF-539 CNS
# [55] = system: SK-MEL-28 melanoma
# [56] = system: SNB-75 CNS
# [57] = system: OVCAR-5 ovarian
# [58] = system: MALME-3M melanoma
# [59] = system: HCC-2998 colon
# [60] = system: MDA-MB-231 breast
structure (smiles),measurement,setting,value
CC(=O)Nc1cccc(-n2c(=O)n(C3CC3)c(=O)c3c(Nc4ccc(I)cc4F)n(C)c(=O)c(C)c32)c1,GI50,[1],10.3 nM
same,TGI,[1],4680 nM
same,TGI,[2],1440 nM
same,GI50,[3],2880 nM
same,TGI,[3],36100 nM
same,GI50,[4],23100 nM
same,TGI,[4],> 86200 nM
same,GI50,[5],< 10 nM
same,TGI,[5],< 10 nM
same,GI50,[6],4870 nM
same,TGI,[6],26900 nM
same,GI50,[7],1320 nM
same,TGI,[7],8350 nM
same,GI50,[8],< 10 nM
same,TGI,[8],< 10.6 nM
same,GI50,[9],7210 nM
same,TGI,[9],> 56400 nM
same,GI50,[10],76 nM
same,TGI,[10],23200 nM
same,GI50,[11],4650 nM
same,TGI,[11],21400 nM
same,GI50,[12],54.1 nM
same,TGI,[12],11300 nM
same,GI50,[13],309 nM
same,TGI,[13],23700 nM
same,GI50,[14],4330 nM
same,TGI,[14],37400 nM
same,GI50,[15],< 10 nM
same,TGI,[15],5480 nM
same,GI50,[16],< 43.2 nM
same,TGI,[16],8930 nM
same,GI50,[17],< 10 nM
same,TGI,[17],< 10 nM
same,GI50,[18],< 10 nM
same,GI50,[19],< 17.2 nM
same,TGI,[19],123 nM
same,GI50,[20],< 10 nM
same,TGI,[20],16500 nM
same,GI50,[21],> 35700 nM
same,TGI,[21],> 59500 nM
same,GI50,[22],< 10 nM
same,TGI,[22],44.3 nM
same,GI50,[23],< 10 nM
same,TGI,[23],26100 nM
same,GI50,[24],3880 nM
same,TGI,[24],> 40900 nM
same,TGI,[25],> 62100 nM
same,GI50,[26],7680 nM
same,TGI,[26],23600 nM
same,GI50,[27],3110 nM
same,TGI,[27],12300 nM
same,GI50,[28],1960 nM
same,TGI,[28],44400 nM
same,GI50,[29],5030 nM
same,TGI,[29],14200 nM
same,GI50,[30],576 nM
same,TGI,[30],20400 nM
same,GI50,[31],1200 nM
same,TGI,[31],20100 nM
same,TGI,[32],> 41100 nM
same,GI50,[33],< 10 nM
same,TGI,[33],< 10 nM
same,GI50,[34],< 10 nM
same,TGI,[34],< 10 nM
same,GI50,[35],80 nM
same,TGI,[35],4520 nM
same,GI50,[36],26.5 nM
same,TGI,[36],11800 nM
same,GI50,[37],> 25100 nM
same,TGI,[37],> 100000 nM
same,GI50,[38],< 10 nM
same,TGI,[38],78.7 nM
same,GI50,[39],< 10 nM
same,TGI,[39],15000 nM
same,GI50,[40],537 nM
same,TGI,[40],46400 nM
same,TGI,[41],> 45600 nM
same,GI50,[42],< 10 nM
same,TGI,[42],< 10 nM
same,GI50,[43],< 23.7 nM
same,TGI,[43],3600 nM
same,GI50,[44],1100 nM
same,TGI,[44],5650 nM
same,GI50,[45],423 nM
same,TGI,[45],4840 nM
same,GI50,[46],1500 nM
same,TGI,[46],24900 nM
same,GI50,[47],< 11.3 nM
same,TGI,[47],21200 nM
same,GI50,[48],< 26 nM
same,TGI,[48],12000 nM
same,GI50,[49],< 10 nM
same,TGI,[49],> 36000 nM
same,GI50,[50],846 nM
same,TGI,[50],18300 nM
same,GI50,[51],238 nM
same,TGI,[51],14700 nM
same,GI50,[52],< 10 nM
same,TGI,[52],137 nM
same,GI50,[53],3320 nM
same,TGI,[53],12800 nM
same,GI50,[54],81.9 nM
same,TGI,[54],11000 nM
same,GI50,[55],< 10 nM
same,TGI,[55],< 10 nM
same,GI50,[56],115 nM
same,TGI,[56],5760 nM
same,GI50,[57],< 10 nM
same,TGI,[57],25500 nM
same,GI50,[58],< 10 nM
same,TGI,[58],< 10 nM
same,GI50,[59],< 10 nM
same,TGI,[59],< 11.9 nM
same,GI50,[60],< 48.9 nM
same,TGI,[60],1990 nM
Cc1[nH]c(/C=C2\C(=O)Nc3ccc(S(=O)(=O)Cc4c(Cl)cccc4Cl)cc32)c(C)c1C(=O)N1CCC[C@@H]1CN1CCCC1,GI50,[1],1710 nM
same,TGI,[1],3100 nM
same,GI50,[2],1650 nM
same,TGI,[2],3010 nM
same,GI50,[3],1680 nM
same,TGI,[3],3060 nM
same,GI50,[4],1320 nM
same,TGI,[4],2590 nM
same,GI50,[5],1740 nM
same,TGI,[5],3120 nM
same,GI50,[6],1740 nM
same,TGI,[6],3130 nM
same,GI50,[7],1890 nM
same,TGI,[7],3360 nM
same,GI50,[8],1720 nM
same,TGI,[8],3100 nM
same,GI50,[9],1460 nM
same,TGI,[9],2780 nM
same,GI50,[10],1810 nM
same,TGI,[10],3220 nM
same,GI50,[11],1890 nM
same,TGI,[11],3310 nM
same,GI50,[12],1690 nM
same,TGI,[12],3070 nM
same,GI50,[14],1980 nM
same,TGI,[14],3400 nM
same,GI50,[15],1710 nM
same,TGI,[15],3100 nM
same,GI50,[16],1930 nM
same,TGI,[16],3340 nM
same,GI50,[17],1240 nM
same,TGI,[17],2490 nM
same,GI50,[18],1060 nM
same,TGI,[18],2250 nM
same,GI50,[19],1880 nM
same,TGI,[19],3290 nM
same,GI50,[20],1760 nM
same,TGI,[20],3150 nM
same,GI50,[21],1720 nM
same,TGI,[21],3110 nM
same,GI50,[22],2020 nM
same,TGI,[22],3460 nM
same,GI50,[23],445 nM
same,TGI,[23],1500 nM
same,GI50,[24],1340 nM
same,TGI,[24],2630 nM
same,GI50,[25],1940 nM
same,TGI,[25],3360 nM
same,GI50,[26],1750 nM
same,TGI,[26],3130 nM
same,GI50,[27],573 nM
same,TGI,[27],1730 nM
same,GI50,[28],1850 nM
same,TGI,[28],3250 nM
same,GI50,[29],1580 nM
same,TGI,[29],2930 nM
same,GI50,[30],1600 nM
same,TGI,[30],2950 nM
same,GI50,[31],1440 nM
same,TGI,[31],2750 nM
same,GI50,[32],1340 nM
same,TGI,[32],2630 nM
same,GI50,[33],1190 nM
same,TGI,[33],2430 nM
same,GI50,[34],1420 nM
same,TGI,[34],2730 nM
same,GI50,[35],1630 nM
same,TGI,[35],2990 nM
same,GI50,[36],1720 nM
same,TGI,[36],3100 nM
same,GI50,[37],1740 nM
same,TGI,[37],3120 nM
same,GI50,[38],1560 nM
same,TGI,[38],2910 nM
same,GI50,[39],1780 nM
same,TGI,[39],3180 nM
same,GI50,[40],1500 nM
same,TGI,[40],2830 nM
same,GI50,[41],1820 nM
same,TGI,[41],3220 nM
same,GI50,[42],2110 nM
same,TGI,[42],3540 nM
same,GI50,[43],1750 nM
same,TGI,[43],3150 nM
same,GI50,[44],1310 nM
same,TGI,[44],2590 nM
same,GI50,[45],1250 nM
same,TGI,[45],2500 nM
same,GI50,[47],1850 nM
same,TGI,[47],3250 nM
same,GI50,[48],1530 nM
same,TGI,[48],2860 nM
same,GI50,[49],1760 nM
same,TGI,[49],3160 nM
same,GI50,[50],1560 nM
same,TGI,[50],2900 nM
same,GI50,[51],1820 nM
same,TGI,[51],3230 nM
same,GI50,[52],1020 nM
same,TGI,[52],6680 nM
same,GI50,[53],681 nM
same,TGI,[53],1900 nM
same,GI50,[54],1740 nM
same,TGI,[54],3120 nM
same,GI50,[55],1750 nM
same,TGI,[55],3130 nM
same,GI50,[57],1930 nM
same,TGI,[57],3370 nM
same,GI50,[58],1720 nM
same,TGI,[58],3100 nM
same,GI50,[59],1990 nM
same,TGI,[59],3420 nM
same,GI50,[60],1670 nM
same,TGI,[60],3040 nM
